IC50 data for 20 molecules are collected here from patent US20200338084A1, “INHIBITORS OF LOW MOLECULAR WEIGHT PROTEIN TYROSINE PHOSPHATASE (LMPTP) AND USES THEREOF” (Sanford Burnham Prebys Medical Discovery Institute, priority 2018, published 2020).

Molecules are shown by their SMILES.

For this assay, the target named is T1, human LMPTP-A (Homo sapiens, UniProt P24666).
T1 sequence (P24666 1-158): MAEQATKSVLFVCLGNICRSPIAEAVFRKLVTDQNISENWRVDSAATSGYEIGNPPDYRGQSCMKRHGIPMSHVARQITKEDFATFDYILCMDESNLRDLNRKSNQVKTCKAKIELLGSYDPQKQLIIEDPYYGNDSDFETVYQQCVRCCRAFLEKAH
Nature of the assay: Enzyme Assay of Inhibition of LMPTP-A. The format is biochemical. The following applies: phosphatase assay, OMFP or pNPP substrate, 50 mM Bis-Tris pH 6.0, 37° C. The procedure, abridged: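 Recombinant human LMPTP-A in 50 mM Bis-Tris pH 6.0, 1 mM DTT, 0.01% Triton X-100 at 37° C. Substrate OMFP read continuously by fluorescence (485/525 nm), or pNPP stopped with NaOH and read at 405 nm. IC50 taken from inhibitor concentration versus % activity plots.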
For `Cc1ccccc1Nc1ncn(Cc2c(Cl)cccc2Cl)c2ncnc1-2` [{3-[(2,6-Dichlorophenyl)methyl](3-hydropurin-6-yl)}(2-methylphenyl)amine], the IC50 was in the range of 1000 to 20000 nM.

`Cc1cccc(Nc2ncn(Cc3c(Cl)cccc3Cl)c3ncnc2-3)c1C` [{3-[(2,6-Dichlorophenyl)methyl](3-hydropurin-6-yl)}(2,3-dimethylphenyl)amine] had an IC50 of 1000 to 20000 nM.

With `CNc1ncn(Cc2c(Cl)cccc2Cl)c2ncnc1-2` [[3-(2,6-Dichloro-benzyl)-3H-purin-6-yl]-methyl-amine], the IC50 lay in the range of 1000 to 20000 nM.

`Nc1ncn(Cc2nc3ccccc3s2)c2ncnc1-2` [3-(benzo[d]thiazol-2-ylmethyl)-3H-purin-6-amine] returned a 50% inhibitory concentration (IC50) of 1000 to 20000 nM.

As to `Nc1ncn(Cc2c(Cl)cccc2Cl)c2nc(Cc3ccccc3)nc1-2` [3-[(2,6-Dichlorophenyl)methyl]-8-benzyl-3-hydropurine-6-ylamine], the IC50 was at most 1000 nM.

Consider `Clc1cccc(Cl)c1Cn1cnc(NC2CC2)c2ncnc1-2` [Cyclopropyl-[3-(2,6-dichloro-benzyl)-3H-purin-6-yl]-amine], for which the IC50 was 1000 to 20000 nM.

The molecule `Nc1ncn(Cc2c(Cl)cccc2Cl)c2nc(/C=C/c3ccccc3)nc1-2` [8-((1E)-2-Phenylvinyl)-3-[(2,6-dichlorophenyl)methyl]-3-hydropurine-6-ylamine] came in with an IC50 of at most 1000 nM.

In turn, `Nc1ncn(Cc2c(Cl)cccc2Cl)c2nc(CCc3ccccc3)nc1-2` [3-[(2,6-Dichlorophenyl)methyl]-8-(2-phenylethyl)-3-hydropurine-6-ylamine] gave a 50% inhibitory concentration (IC50) of at most 1000 nM.

Take `Clc1ccc(Cn2cnc(NCc3ccco3)c3ncnc2-3)c(Cl)c1` [[3-(2,4-Dichloro-benzyl)-3H-purin-6-yl]-furan-2-ylmethyl-amine]: the IC50 is at least 20000 nM.

On to `Nc1ncn(Cc2ccccc2Cl)c2ncnc1-2` [3-(2-Chloro-benzyl)-3H-purin-6-ylamine], for which the IC50 fell in the range of 1000 to 20000 nM.

`Clc1cccc(Cl)c1Cn1cnc(NCc2cccs2)c2ncnc1-2` [[3-(2,6-Dichloro-benzyl)-3H-purin-6-yl]-thiophen-2-ylmethyl-amine] yielded an IC50 of 1000 to 20000 nM.

The molecule `Nc1ncn(Cc2c(Cl)cccc2Cl)c2nc(C(F)F)nc1-2` [3-[(2,6-dichlorophenyl)methyl]-8-(difluoromethyl)-3-hydropurine-6-ylamine] had an IC50 of 1000 to 20000 nM.

On to `Nc1ncn(Cc2ccccc2F)c2ncnc1-2` [3-(2-Fluoro-benzyl)-3H-purin-6-ylamine], for which the IC50 is 1000 to 20000 nM.

`Clc1cccc(Cl)c1Cn1cnc(N2CCCCC2)c2ncnc1-2` [3-(2,6-Dichloro-benzyl)-6-piperidin-1-yl-3H-purine]: the IC50 was at least 20000 nM.

`Fc1cccc(CNc2ncn(Cc3c(Cl)cccc3Cl)c3ncnc2-3)c1` [[3-(2,6-Dichloro-benzyl)-3H-purin-6-yl]-(3-fluoro-benzyl)-amine]: the IC50 was 1000 to 20000 nM.

`Nc1ncn(Cc2c(Cl)cccc2I)c2ncnc1-2` [3-(2-Chloro-6-iodo-benzyl)-3H-purin-6-ylamine]: the 50% inhibitory concentration (IC50) is at most 1000 nM.

For `N#Cc1ccc(Nc2ncn(Cc3c(Cl)cccc3Cl)c3ncnc2-3)cc1` [4-({3-[(2,6-Dichlorophenyl)methyl]-3-hydropurin-6-yl}amino)benzenecarbonitrile], the IC50 lay in the range of 1000 to 20000 nM.

The molecule `Nc1ncn(Cc2c(Cl)cccc2Cl)c2nc(-c3cccc(F)c3)nc1-2` [3-[(2,6-Dichlorophenyl)methyl]-8-(3-fluorophenyl)-3-hydropurine-6-ylamine] yielded an IC50 of at most 1000 nM.

The molecule `Nc1ncn(Cc2cccc(F)c2)c2ncnc1-2` [3-(3-Fluoro-benzyl)-3H-purin-6-ylamine] had an IC50 of 1000 to 20000 nM.

As for `Cn1ncc(Br)c1Cn1cnc(N)c2ncnc1-2` [3-[(4-bromo-1-methylpyrazol-5-yl)methyl]-3-hydropurine-6-ylamine], the IC50 is at most 1000 nM.

One may read the IC50 as the concentration that inhibits the measured activity by half. Read a low IC50 as greater potency.
